These results are taken from US11752138B2 (VANDERBILT UNIVERSITY, priority 2020, dated 2023).

One assay has as its target Human LDHA (Homo sapiens (Human), UniProt P00338). In words: human LDHA primary biochemical assay (Example 1). The following applies: biochemical LDHA inhibitory activity, assay of Example 1. The text has this: This example describes a human LDHA primary biochemical assay employed in the characterization of a compound of Formula I in an embodiment of the dislcosure.
Test compounds were placed in a Greiner Bio-One (Monroe, N.C.) 1536-well black solid bottom assay plate. 200 millimolar (mM) Tris HCl, pH 7.4, 100 micromolar (μM) EDTA and 0.01% TWEEN-20™, final concentration, was used as the assay buffer. The LDHA reagent was 2 nanomolar (nM) Human LDHA (Meridian Life Science, Inc., Memphis, Tenn.), final concentration, in assay buffer. The substrate reagent was 0.06 mM NADH and 0.2 mM sodium pyruvate, final concentration, in assay buffer. The resazurin/diaphorase coupling reagent was 0.037 mM resazurin and 0.133 milligrams per milliliter (mg/mL) diaphorase, final concentration, in assay buffer. The inhibition of LDHA activity was measured by fluorescence emission. […]
In general, IC50 refers to the point on the concentration scale where inhibition reaches its midpoint. Regarding `CC(C)c1cnc(-c2cccc(-c3nn(-c4nc(C(=O)O)cs4)c(CC4CC4)c3Cc3ccc(S(N)(=O)=O)c(F)c3)c2)s1` [Compound 215, 2-[5-(cyclopropylmethyl)-4-[(3-fluoro-4-sulfamoylphenyl)methyl]-3-[3-(5-isopropyl-1,3-thiazol-2-yl)phenyl]pyrazol-1-yl]-1,3-thiazole-4-carboxylic acid], the 50% inhibitory concentration (IC50) was below 0.1 µM. `Cc1cnc(-c2cccc(-c3nn(-c4nc(C(=O)O)cs4)c(CC4CC4)c3Cc3ccc(S(N)(=O)=O)c(F)c3)c2)nc1` [Compound 217, 2-[5-(cyclopropylmethyl)-4-[(3-fluoro-4-sulfamoylphenyl)methyl]-3-[3-(5-methylpyrimidin-2-yl)phenyl]pyrazol-1-yl]-1,3-thiazole-4-carboxylicacid] came in with an IC50 below 0.1 µM. Compound `NS(=O)(=O)c1ccc(Cc2c(-c3cccc(-c4ccc(C(F)(F)F)cc4)c3)nn(-c3nc(C(=O)O)cs3)c2CC2CC2)cc1F` [Compound 219, 2-(5-(cyclopropylmethyl)-4-(3-fluoro-4-sulfamoylbenzyl)-3-(4′-(trifluoromethyl)-[1,1′-biphenyl]-3-yl)-1H-pyrazol-1-yl)thiazole-4-carboxylic acid] displayed a 50% inhibitory concentration (IC50) below 0.1 µM. As for `NS(=O)(=O)c1ccc(Cc2c(-c3cccc(-c4ccc5c(c4)CCC5)c3)nn(-c3nc(C(=O)O)cs3)c2CC2CC2)cc1F` [Compound 220, 2-(5-(cyclopropylmethyl)-3-(3-(2,3-dihydro-1H-inden-5-yl)phenyl)-4-(3-fluoro-4-sulfamoylbenzyl)-1H-pyrazol-1-yl)thiazole-4-carboxylic acid], the IC50 was below 0.1 µM.

For the compound `NS(=O)(=O)c1ccc(Cc2c(-c3cccc(-c4ccc(C5CC5)cc4)c3)nn(-c3nc(C(=O)O)cs3)c2CC2CC2)cc1F` [Compound 222, 2-(3-(4′-cyclopropyl-[1,1′-biphenyl]-3-yl)-5-(cyclopropylmethyl)-4-(3-fluoro-4-sulfamoylbenzyl)-1H-pyrazol-1-yl)thiazole-4-carboxylic acid], the IC50 is 0.1 to 1 µM. In the case of `Cc1cc(-c2cccc(-c3nn(-c4nc(C(=O)O)cs4)c(CC4CC4)c3Cc3ccc(S(N)(=O)=O)c(F)c3)c2)ccc1O` [Compound 228, 2-(5-(cyclopropylmethyl)-4-(3-fluoro-4-sulfamoylbenzyl)-3-(4′-hydroxy-3′-methyl-[1,1′-biphenyl]-3-yl)-1H-pyrazol-1-yl)thiazole-4-carboxylic acid], the IC50 was below 0.1 µM. Turning to `NS(=O)(=O)c1ccc(Cc2c(-c3cccc(-c4ccc(O)c(F)c4)c3)nn(-c3nc(C(=O)O)cs3)c2CC2CC2)cc1F` [Compound 229, 2-(5-(cyclopropylmethyl)-3-(3′-fluoro-4′-hydroxy-[1,1′-biphenyl]-3-yl)-4-(3-fluoro-4-sulfamoylbenzyl)-1H-pyrazol-1-yl)thiazole-4-carboxylic acid], the IC50 is below 0.1 µM. In turn, `Cc1ccc(C#Cc2cccc(-c3nn(-c4nc(C(=O)O)cs4)c(CC4CC4)c3Cc3ccc(S(N)(=O)=O)c(F)c3)n2)s1` [Compound 231, 2-(5-(cyclopropylmethyl)-4-(3-fluoro-4-sulfamoylbenzyl)-3-(6-((5-methylthiophen-2-yl)ethynyl)pyridin-2-yl)-1H-pyrazol-1-yl)thiazole-4-carboxylic acid] gave a concentration for half-maximal inhibition (IC50) below 0.1 µM. In the case of `Cc1ccc(C#Cc2cccc(-c3nn(-c4nc(C(=O)O)cs4)c(CCC4CC4)c3Cc3ccc(S(N)(=O)=O)c(F)c3)c2)o1` [Compound 232, 2-(5-(2-cyclopropylethyl)-4-(3-fluoro-4-sulfamoylbenzyl)-3-(3-((5-methylfuran-2-yl)ethynyl)phenyl)-1H-pyrazol-1-yl)thiazole-4-carboxylic acid], the 50% inhibitory concentration (IC50) was below 0.1 µM. `Cc1cnc(C#Cc2cccc(-c3nn(-c4nc(C(=O)O)cs4)c(CCC4CC4)c3Cc3ccc(S(N)(=O)=O)c(F)c3)c2)s1` [Compound 234, 2-(5-(2-cyclopropylethyl)-4-(3-fluoro-4-sulfamoylbenzyl)-3-(3-((5-methylthiazol-2-yl)ethynyl)phenyl)-1H-pyrazol-1-yl)thiazole-4-carboxylic acid] returned a concentration for half-maximal inhibition (IC50) below 0.1 µM. In turn, `Cc1ncc(C#Cc2cccc(-c3nn(-c4nc(C(=O)O)cs4)c(CCC4CC4)c3Cc3ccc(S(N)(=O)=O)c(F)c3)c2)s1` [Compound 235, 2-(5-(2-cyclopropylethyl)-4-(3-fluoro-4-sulfamoylbenzyl)-3-(3-((2-methylthiazol-5-yl)ethynyl)phenyl)-1H-pyrazol-1-yl)thiazole-4-carboxylic acid] displayed an IC50 below 0.1 µM. Still for that read-out and setting: the figure for `Cc1nc(C#Cc2cccc(-c3nn(-c4nc(C(=O)O)cs4)c(CC4CC4)c3Cc3ccc(S(N)(=O)=O)c(F)c3)c2)cs1` [Compound 236, 2-(5-(cyclopropylmethyl)-4-(3-fluoro-4-sulfamoylbenzyl)-3-(3-((2-methylthiazol-4-yl)ethynyl)phenyl)-1H-pyrazol-1-yl)thiazole-4-carboxylic acid] is below 0.1 µM; for `Cc1cc(C#Cc2cccc(-c3nn(-c4nc(C(=O)O)cs4)c(CC4CC4)c3Cc3ccc(S(N)(=O)=O)c(F)c3)c2)cs1` [Compound 240, 2-(5-(cyclopropylmethyl)-4-(3-fluoro-4-sulfamoylbenzyl)-3-(3-((5-methylthiophen-3-yl)ethynyl)phenyl)-1H-pyrazol-1-yl)thiazole-4-carboxylic acid] it is below 0.1 µM. Still for that read-out and setting: the figure for `Cc1ccc(C(=O)Cc2cccc(-c3nn(-c4nc(C(=O)O)cs4)c(CC4CC4)c3Cc3ccc(S(N)(=O)=O)c(F)c3)c2)s1` [Compound 242, 2-(5-(cyclopropylmethyl)-4-(3-fluoro-4-sulfamoylbenzyl)-3-(3-(2-(5-methylthiophen-2-yl)-2-oxoethyl)phenyl)-1H-pyrazol-1-yl)thiazole-4-carboxylic acid] is below 0.1 µM. The compound `Cc1nc(C#Cc2cccc(-c3nn(-c4nc(C(=O)O)cs4)c(CCC4CC4)c3Cc3ccc(S(N)(=O)=O)c(F)c3)c2)cs1` [Compound 243, 2-(5-(2-cyclopropylethyl)-4-(3-fluoro-4-sulfamoylbenzyl)-3-(3-((2-methylthiazol-4-yl)ethynyl)phenyl)-1H-pyrazol-1-yl)thiazole-4-carboxylic acid] displayed an IC50 below 0.1 µM. For `Cc1ccc(C#Cc2cccc(-c3nn(-c4nc(C(=O)O)co4)c(CC4CC4)c3Cc3ccc(S(N)(=O)=O)c(F)c3)c2)s1` [Compound 247, 2-(5-(cyclopropylmethyl)-4-(3-fluoro-4-sulfamoylbenzyl)-3-(3-((5-methylthiophen-2-yl)ethynyl)phenyl)-1H-pyrazol-1-yl)oxazole-4-carboxylic acid], the IC50 was below 0.1 µM.

The test system of the next assay is LDH. In words: LDH activity in mice liver lysates, rate of conversion of glyoxylate to oxalate (FIG. 2). It counts as in vivo. Conditions: 5-10 mg/kg, oral daily dose for 5 days; liver harvested two hours after last dose; wild type and AGXT null mice. The procedure: FIG. 2. LDH activity as measured by the rate of conversion of glyoxylate (G) to oxalate (O) in mice livers. Wild type mice, closed circles; AGXT null mice; open squares. […] Liver was harvested from animals two hours after delivery of the last drug dose. Enzyme assays were performed with liver lysates in 0.1M Glycine-Sodium hydroxide buffer, pH 9.6, 20 mM glyoxylate, 3.25 mM NAD+, and the rate of increase in absorbance at 340 nm monitored at room temperature
Turning to `Cc1ccc(C#Cc2cccc(-c3nn(-c4nc(C(=O)O)co4)c(CC4CC4)c3Cc3ccc(S(N)(=O)=O)c(F)c3)c2)s1` [Compound 247, 2-(5-(cyclopropylmethyl)-4-(3-fluoro-4-sulfamoylbenzyl)-3-(3-((5-methylthiophen-2-yl)ethynyl)phenyl)-1H-pyrazol-1-yl)oxazole-4-carboxylic acid], the “suppression of oxalate production in mice liver (LDH activity, glyoxylate to oxalate)” value was “Maximal suppression of oxalate production”.
